{"source": "patent US10111890B2", "about": "“9-aminomethyl minocycline compounds and uses thereof” (Paratek Pharmaceuticals, Inc., priority 2016, dated 2018)", "key": {"[1]": {"experiment": "Phase 1 food-effect crossover study: plasma PK after single 300 mg oral dose", "assay_type": "in vivo, human", "conditions": "human, plasma, po, 300 mg", "procedure": "These meals were to be consumed within 20 minutes. Dose administration for Treatments B, C, and D was based off of the end time of the meal. […] Geometric means were determined for AUC and Cmax. PK parameters were evaluated using non-compartmental analysis using Phoenix® WinNonlin® (Pharsight Corp, St. Louis, Mo.), Version 6.2.1. Confidence intervals (CI) for test treatments (fed states: Treatments B, C, and D) compared with the reference treatment (fasted state: Treatment A) were constructed for AUC0-24, AUC0-t, AUC0-inf, and Cmax."}, "[2]": {"experiment": "Prior Phase 1 studies: bioavailability / bioequivalence of oral tablet formulation", "set-up": "species or system human", "conditions": "in vivo; for bioavailability: human"}, "[3]": {"experiment": "Phase 1 multiple oral dose (300, 450, 600 mg once daily x 5 days) crossover study: plasma pharmacokinetics", "conditions": "for Day 1 PK Summary, Geom. Mean / Day 1 PK Summary, Mean / Day 5 PK Summary, Geom. Mean / Day 5 PK Summary, Mean: preliminary results; for half-life / Tmax / AUC(0-t) / Cmax: human; for half-life: in vivo; for Tmax / AUC(0-t) / Cmax: plasma; for Cmax: Mean Cmax; for exposure (dose-normalized AUC0-24) as % of that predicted if perfectly dose-proportional: increase in dose from 300 mg to 600 mg", "excerpt": "Thus the study was designed as a Phase 1, randomized, double-blind, 3-period, crossover study in healthy adult subjects. The study consisted of a screening period (Day −21 through Day −2), 3 baseline periods (Day −1 of each period), 3 treatment periods (Day 1 through Day 6 of each period), and a study completion visit (within 6 to 10 days after the last dose of study drug in Period 3). There was a washout of at least 5 days between the last dose in one period and the first dose in the next period. Subjects were confined to the study site from Day −1 of Period 1 until discharge on Day 6 of Period 3, after the 24-hour blood sampling, urine sampling, and safety assessments were completed. Subjects returned to the study center 6 to 10 days after the last dose of study drug in Period 3 for the study completion visit.\nAll doses of study drug were administered in the morning with no food or drink except for water at least 6 hours prior to dosing. Subjects then had no food or drink except water for at least 2 hours after dosing and no dairy products, antacids, or multivitamins for 4 hours after dosing.\nThe 24-hour blood sample for Day 1 was collected prior to dosing on Day 2 for each period.\nPoint estimates and 90% CIs for differences on the log scale were exponentiated to obtain estimates for the ratios of geometric means and respective 90% CIs on the original scale. No adjustment was made for multiplicity.\nThe estimates of slope b were reported along with the corresponding 2-sided 90% CIs."}}, "note": "Like-named read-outs stand apart in the source and are kept apart here.", "data": [{"compound": "CN(C)c1cc(CNCC(C)(C)C)c(O)c2c1C[C@H]1C[C@H]3[C@H](N(C)C)C(O)=C(C(N)=O)C(=O)[C@@]3(O)C(O)=C1C2=O", "note": "[Omadacycline, 9-[(2,2-dimethyl-propylamino)-methyl]-minocycline]", "values": [{"measurement": "AUC(0-t)", "setting": "[1]; Treatment D: high-fat meal incl. dairy 2 h before dosing, read-out: AUC0-t, Geometric LS Mean", "value": 2800, "unit": "ng·h/mL"}, {"measurement": "AUC(0-t)", "setting": "[1]; Treatment D: high-fat meal incl. dairy 2 h before dosing, read-out: AUC0-t, Mean (Coefficient of Variation)", "value": 2800, "unit": "ng·h/mL"}, {"measurement": "Cmax", "setting": "[1]; Treatment D: high-fat meal incl. dairy 2 h before dosing, read-out: Cmax, Geometric LS Mean", "value": 270, "unit": "ng/mL"}, {"measurement": "Cmax", "setting": "[1]; Treatment D: high-fat meal incl. dairy 2 h before dosing, read-out: Cmax, Mean (Coefficient of Variation)", "value": 300, "unit": "ng/mL"}, {"measurement": "Tmax", "setting": "[1]; Treatment D: high-fat meal incl. dairy 2 h before dosing, read-out: Tmax", "value": 2.9, "unit": "h"}, {"measurement": "Tmax", "setting": "[1]; across all treatment periods, read-out: median Tmax", "value": "2.5 to 2.9", "unit": "h"}, {"measurement": "bioavailability", "setting": "[2]", "value": 35, "unit": "%"}, {"measurement": "bioavailability", "setting": "[2]; phase 3 tablet formulation (tosylate salt), fasting conditions, read-out: absolute bioavailability", "value": 34.5, "unit": "%"}, {"measurement": "bioequivalence of oral and i.v. dose (based on serum AUC)", "setting": "[2]", "value": "bioequivalent"}, {"measurement": "Mean AUC0-24", "setting": "[3]; 300 mg oral once daily, Day 5", "value": 9267.2, "unit": "ng·h/mL"}, {"measurement": "Cmax/Dose, Geometric LS Means", "setting": "[3]; 300 mg, Day 1", "value": 2.09, "unit": "ng/mL/mg"}, {"measurement": "Cmax/Dose, Geometric LS Means", "setting": "[3]; 300 mg, Day 5", "value": 2.62, "unit": "ng/mL/mg"}, {"measurement": "Cmax/Dose, Geometric LS Means", "setting": "[3]; 450 mg, Day 1", "value": 1.81, "unit": "ng/mL/mg"}, {"measurement": "Cmax/Dose, Geometric LS Means", "setting": "[3]; 450 mg, Day 5", "value": 2.32, "unit": "ng/mL/mg"}, {"measurement": "Cmax/Dose, Geometric LS Means", "setting": "[3]; 600 mg, Day 1", "value": 1.54, "unit": "ng/mL/mg"}, {"measurement": "Cmax/Dose, Geometric LS Means", "setting": "[3]; 600 mg, Day 5", "value": 2.11, "unit": "ng/mL/mg"}, {"measurement": "Day 1 PK Summary, Geom. Mean", "setting": "[3]; 300 (dose), Day 1", "value": "6,293.65"}, {"measurement": "Day 1 PK Summary, Mean", "setting": "[3]; 300 (dose), Day 1", "value": "6,560.73"}, {"measurement": "Day 5 PK Summary, Geom. Mean", "setting": "[3]; 300 (dose), Day 5", "value": "8,990.55"}, {"measurement": "Day 5 PK Summary, Mean", "setting": "[3]; 300 (dose), Day 5", "value": "9,351.02"}, {"measurement": "Day 1 PK Summary, Geom. Mean", "setting": "[3]; 450 (dose), Day 1", "value": "8,382.03"}, {"measurement": "Day 1 PK Summary, Mean", "setting": "[3]; 450 (dose), Day 1", "value": "8,959.13"}, {"measurement": "Day 5 PK Summary, Geom. Mean", "setting": "[3]; 450 (dose), Day 5", "value": "12,883.95"}, {"measurement": "Day 5 PK Summary, Mean", "setting": "[3]; 450 (dose), Day 5", "value": "13,363.54"}, {"measurement": "Day 1 PK Summary, Geom. Mean", "setting": "[3]; 600 (dose), Day 1", "value": "9,644.67"}, {"measurement": "Day 1 PK Summary, Mean", "setting": "[3]; 600 (dose), Day 1", "value": "9,990.20"}, {"measurement": "Day 5 PK Summary, Geom. Mean", "setting": "[3]; 600 (dose), Day 5", "value": "15,431.37"}, {"measurement": "Day 5 PK Summary, Mean", "setting": "[3]; 600 (dose), Day 5", "value": "16,171.61"}, {"measurement": "systemic exposure on Day 5 higher than on Day 1", "setting": "[3]; all tested dose levels", "value": "~50", "unit": "%"}, {"measurement": "half-life", "setting": "[3]; mean half-life in plasma (T1/2), across the 3 tested dose levels, Day 1", "value": "~13", "unit": "h"}, {"measurement": "half-life", "setting": "[3]; mean half-life in plasma (T1/2), across the 3 tested dose levels, Day 5", "value": "~16", "unit": "h"}, {"measurement": "half-life", "setting": "[3]; po, 300 mg, Mean T1/2, 300 mg oral once daily, Day 1", "value": 13.7, "unit": "h"}, {"measurement": "half-life", "setting": "[3]; po, 300 mg, Mean T1/2, 300 mg oral once daily, Day 5", "value": 15.5, "unit": "h"}, {"measurement": "half-life", "setting": "[3]; po, 450 mg, Mean T1/2, 450 mg oral once daily, Day 1", "value": 13.4, "unit": "h"}, {"measurement": "half-life", "setting": "[3]; po, 450 mg, Mean T1/2, 450 mg oral once daily, Day 5", "value": 16.8, "unit": "h"}, {"measurement": "half-life", "setting": "[3]; po, 600 mg, Mean T1/2, 600 mg oral once daily, Day 1", "value": 13, "unit": "h"}, {"measurement": "half-life", "setting": "[3]; po, 600 mg, Mean T1/2, 600 mg oral once daily, Day 5", "value": 16.8, "unit": "h"}, {"measurement": "Tmax", "setting": "[3]; oral, 600 mg, time at which mean plasma concentrations peaked (Tmax), all tested dose levels (300, 450, 600 mg), Day 1 and Day 5", "value": 2.5, "unit": "h"}, {"measurement": "AUC(0-t)", "setting": "[3]; po, 300 mg, Mean AUC0-24, 300 mg oral once daily, Day 1", "value": 6640, "unit": "ng·h/mL"}, {"measurement": "AUC(0-t)", "setting": "[3]; po, 300 mg, Mean AUC0-24, 300 mg oral once daily, Day 5", "value": 9270, "unit": "ng·h/mL"}, {"measurement": "Cmax", "setting": "[3]; po, 300 mg, 300 mg oral once daily, Day 1", "value": 649, "unit": "ng/mL"}, {"measurement": "Cmax", "setting": "[3]; po, 300 mg, 300 mg oral once daily, Day 5", "value": 809, "unit": "ng/mL"}, {"measurement": "Tmax", "setting": "[3]; po, 300 mg, Mean Tmax, 300 mg oral once daily, Day 1", "value": 2.5, "unit": "h"}, {"measurement": "Tmax", "setting": "[3]; po, 300 mg, Mean Tmax, 300 mg oral once daily, Day 5", "value": 2.5, "unit": "h"}, {"measurement": "AUC(0-t)", "setting": "[3]; po, 450 mg, Mean AUC0-24, 450 mg oral once daily, Day 1", "value": 8980, "unit": "ng·h/mL"}, {"measurement": "AUC(0-t)", "setting": "[3]; po, 450 mg, Mean AUC0-24, 450 mg oral once daily, Day 5", "value": 13400, "unit": "ng·h/mL"}, {"measurement": "Cmax", "setting": "[3]; po, 450 mg, 450 mg oral once daily, Day 1", "value": 874, "unit": "ng/mL"}, {"measurement": "Cmax", "setting": "[3]; po, 450 mg, 450 mg oral once daily, Day 5", "value": 1080, "unit": "ng/mL"}, {"measurement": "Tmax", "setting": "[3]; po, 450 mg, Mean Tmax, 450 mg oral once daily, Day 1", "value": 2.5, "unit": "h"}, {"measurement": "Tmax", "setting": "[3]; po, 450 mg, Mean Tmax, 450 mg oral once daily, Day 5", "value": 2.5, "unit": "h"}, {"measurement": "AUC(0-t)", "setting": "[3]; po, 600 mg, Mean AUC0-24, 600 mg oral once daily, Day 1", "value": 10000, "unit": "ng·h/mL"}, {"measurement": "AUC(0-t)", "setting": "[3]; po, 600 mg, Mean AUC0-24, 600 mg oral once daily, Day 5", "value": 16400, "unit": "ng·h/mL"}, {"measurement": "Cmax", "setting": "[3]; po, 600 mg, 600 mg oral once daily, Day 1", "value": 954, "unit": "ng/mL"}, {"measurement": "Cmax", "setting": "[3]; po, 600 mg, 600 mg oral once daily, Day 5", "value": 1310, "unit": "ng/mL"}, {"measurement": "Tmax", "setting": "[3]; po, 600 mg, Mean Tmax, 600 mg oral once daily, Day 1", "value": 2.51, "unit": "h"}, {"measurement": "Tmax", "setting": "[3]; po, 600 mg, Mean Tmax, 600 mg oral once daily, Day 5", "value": 2.5, "unit": "h"}, {"measurement": "exposure (dose-normalized AUC0-24) as % of that predicted if perfectly dose-proportional", "setting": "[3]; Day 1", "value": 76, "unit": "%"}, {"measurement": "exposure (dose-normalized AUC0-24) as % of that predicted if perfectly dose-proportional", "setting": "[3]; Day 5", "value": 88, "unit": "%"}]}]}
